Measurements as given in patent US10899738B2 (THE REGENTS OF THE UNIVERSITY OF MICHIGAN, priority 2016, dated 2021).
Like-named read-outs stand apart in the source and are kept apart here. Values belong to the molecule of their own block, whether it stands above or below them.

What was measured:
[1] = system: MOLM-13 cells; assay: Mechanism of action studies, gene expression measured with qPCR in MOLM-13 cells; type: cell-based
Protocol: (§1) MOLM-13 or MV4-11 cells were seeded in a 6-well plate at a density of 500,000 cells/well in 2 ml of culture medium and treated with either Cpd. No. 210 or Cpd. No. 366 at the concentrations as indicated. About 4 days after the treatments, cells were harvested and the expression of each gene was measured with qPCR.
as §1, with “MOLM-13” for “MOLM-13 or MV4-11”, “366” for “210”, “238” for “366”, “66 hours” for “4 days”, “treatment,” for “treatments,”
as §1, with “500,000-800,000” for “500,000”, “366” for “210”, “215” for “366”, “40 hours” for “4 days”, “treatment,” for “treatments,”

[2] = target: menin protein (Homo sapiens (Human), UniProt O00255); assay: biochemical; type: binding
Outline: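 Competitive fluorescence polarization assay using FAM-labelled MLL1 peptide probe FAM-MM2 (2 nM final) preincubated with menin (4 nM final) in PBS with 0.02% bovine γ-globulin, 4% DMSO and 0.01% Triton X-100. Compounds were added and incubated 30 min at room temperature. IC50 came from nonlinear regression of competition curves, with Ki also derived.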

[3] = Cell growth inhibition, CellTiter-Glo Luminescent Cell Viability Assay; type: cell-based
Outline: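 Cells seeded at 2,000/well with serially diluted compound and cultured 4 days at 37 °C, 5% CO2. Viability read by CellTiter-Glo luminescence; IC50 derived from dose-response.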

[4] = system: MV4-11 cells; assay: Mechanism of action studies, gene expression measured with qPCR in MV4-11 cells; type: cell-based
Protocol: as §1
as §1, with “500,000-800,000” for “500,000”, “366” for “210”, “215” for “366”, “40 hours” for “4 days”, “treatment,” for “treatments,”

[5] = 66 hours of treatment, dose dependent
[6] = FP competitive binding, menin protein 4 nM, FAM-MM2 probe 2 nM, read-out: Menin Binding Affinity IC50
[7] = MOLM-13, 96 h, read-out: Cell Growth Inhibition IC50 (μM) MOLM13
[8] = MV4-11, 96 h, read-out: Cell Growth Inhibition IC50 (μM) MV4, 11
[9] = 4 days of treatment, dose dependent
[10] = MOLM-13, 96 h, read-out: Cell Growth Inhibition IC50 (μM) MOLM13, MOLM13 cells, 4 days, CellTiter-Glo
[11] = MV4-11, 96 h, read-out: Cell Growth Inhibition IC50 (μM) MV4, 11, MV4, 11 cells, 4 days, CellTiter-Glo
[12] = MOLM-13, 96 h, MOLM13 cells, 4 days, CellTiter-Glo, read-out: Cell Growth Inhibition IC50 (μM) MOLM13
[13] = MV4-11, 96 h, MV4, 11 cells, 4 days, CellTiter-Glo, read-out: Cell Growth Inhibition IC50 (μM) MV4, 11

menin protein, sequence (O00255 whole entry): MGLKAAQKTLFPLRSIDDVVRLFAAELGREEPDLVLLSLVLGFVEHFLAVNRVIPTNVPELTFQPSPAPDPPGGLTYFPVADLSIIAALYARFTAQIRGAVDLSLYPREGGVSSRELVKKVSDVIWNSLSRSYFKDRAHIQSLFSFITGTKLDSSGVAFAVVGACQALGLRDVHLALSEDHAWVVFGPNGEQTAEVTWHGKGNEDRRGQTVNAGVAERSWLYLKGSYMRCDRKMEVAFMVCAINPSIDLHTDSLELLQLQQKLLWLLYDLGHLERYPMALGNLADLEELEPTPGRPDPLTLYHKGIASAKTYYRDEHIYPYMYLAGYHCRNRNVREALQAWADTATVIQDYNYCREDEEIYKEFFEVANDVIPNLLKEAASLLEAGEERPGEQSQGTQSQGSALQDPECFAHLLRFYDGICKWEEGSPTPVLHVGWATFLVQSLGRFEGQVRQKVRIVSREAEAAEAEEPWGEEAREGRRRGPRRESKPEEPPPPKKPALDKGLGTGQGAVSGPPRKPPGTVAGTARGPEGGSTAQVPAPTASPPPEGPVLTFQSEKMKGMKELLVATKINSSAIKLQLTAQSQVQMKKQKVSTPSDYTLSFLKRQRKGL

Structure (SMILES): CNC(=O)O[C@H]1CCC[C@@H]1C(Cn1ccnc1)(c1ccccc1)C1CCN(CC2CN(c3ccc(S(=O)(=O)c4cnn(C)c4)cc3)C2)CC1 (mixture of isomers) [compound 238, rac-(1S,2R)-2-(2-(1H-imidazol-1-yl)-1-(1-((1-(4-((1-methyl-1H-pyrazol-4-yl)sulfonyl)phenyl)azetidin-3-yl)methyl)piperidin-4-yl)-1-phenylethyl)cyclopentyl methylcarbamate]
ITGAM gene expression ([1]; 66 hours of treatment): not effect
MEIS1 gene expression ([1]; 66 hours of treatment): reduced
HOX7 gene expression [1, 5]: reduced
HOX10 gene expression [1, 5]: reduced
IC50 [2, 6]: 0.008 µM
IC50 [3, 7]: 0.16 µM
IC50 [3, 8]: 0.027 µM

Structure (SMILES): CNC(=O)O[C@H]1CCC[C@@H]1C(Cn1ccnc1)(c1ccccc1)C1CCN(CC2CN(c3ccc(C#N)cc3)C2)CC1 (mixture of isomers) [Cpd. No. 366, rac-(1S,2R)-2-(1-(1-((1-(4-cyanophenyl)azetidin-3-yl)methyl)piperidin-4-yl)-2-(1H-imidazol-1-yl)-1-phenylethyl)cyclopentyl methylcarbamate]
MEIS1 gene expression ([1]; 40 hours of treatment): reduced
all the tested HOX genes (HOX7, HOX9, HOX10, HOX11) expression ([1]; 40 hours of treatment, dose dependent): reduces
ITGAM gene expression ([1]; 66 hours of treatment): not effect
MEIS1 gene expression ([1]; 66 hours of treatment): reduced
HOX7 gene expression [1, 5]: reduced
HOX10 gene expression [1, 5]: reduced
MEIS1 gene expression ([1]; 4 days of treatment): reduced
HOX7 gene expression [1, 9]: reduced
HOX10 gene expression [1, 9]: reduced
MYB gene expression ([1]; 4 days of treatment, high concentration): may reduce
HOX7 gene expression ([4]; 40 hours of treatment): Neither Cpd. No. 366 nor Cpd. No. 215 showed an effect
HOX10 gene expression ([4]; 40 hours of treatment): significantly reduced
HOX11 gene expression ([4]; 40 hours of treatment): significantly reduced
MEIS1 gene expression ([4]; 40 hours of treatment): reduced
HOX7 gene expression ([4]; 4 days of treatment): not as robust as those of HOX10
MEIS1 gene expression ([4]; 4 days of treatment): reduced
MYB gene expression ([4]; 4 days of treatment): no effect
HOX10 gene expression [4, 9]: reduced
IC50 [2, 6]: 0.009 µM
IC50 [3, 7]: 0.14 µM
IC50 [3, 8]: 0.035 µM

Structure (SMILES): CNC(=O)O[C@H]1CCC[C@@H]1C1(C2CCN(CC3CN(c4ccc(S(=O)(=O)c5ccncc5)cc4)C3)CC2)CN(C)Cc2ccccc21 (mixture of isomers) [Cpd. No. 210, rac-(1S,2R)-2-(2-methyl-4-(1-((1-(4-(pyridin-4-ylsulfonyl)phenyl)azetidin-3-yl)methyl)piperidin-4-yl)-1,2,3,4-tetrahydroisoquinolin-4-yl)cyclopentyl methylcarbamate]
MEIS1 gene expression ([1]; 4 days of treatment): reduced
HOX7 gene expression [1, 9]: reduced
HOX10 gene expression [1, 9]: reduced
HOX7 gene expression ([4]; 4 days of treatment): not as robust as those of HOX10
MEIS1 gene expression ([4]; 4 days of treatment): reduced
MYB gene expression ([4]; 4 days of treatment): no effect
HOX10 gene expression [4, 9]: reduced
IC50 ([2]; Menin Binding Affinity IC50 (μM)): 0.004 µM
IC50 [3, 7]: 0.135 ± 0.093 µM
IC50 [3, 8]: 0.023 ± 0.016 µM

IC50 [2, 6]: 0.006 µM
Structure (SMILES): CNC(=O)O[C@H]1CCC[C@@H]1C(C#N)(c1ccccc1)C1CCN(CC2CN(c3ccc(S(=O)(=O)c4ccncc4)cc3)C2)CC1 (mixture of isomers) [Cpd. No. 215, rac-(1S,2R)-2-(cyano(phenyl)(1-((1-(4-(pyridin-4-ylsulfonyl)phenyl)azetidin-3-yl)methyl)piperidin-4-yl)methyl)cyclopentyl methylcarbamate]
HOX7 gene expression ([4]; 40 hours of treatment): Neither Cpd. No. 366 nor Cpd. No. 215 showed an effect
IC50 [3, 10]: 0.415 ± 0.208 µM
IC50 [3, 11]: 0.173 ± 0.048 µM

Structure (SMILES): CNC(=O)O[C@H]1CCC[C@@H]1C(C#N)(c1ccccc1)C1CCN(CC2(C)CN(c3ccc(S(=O)(=O)c4cnn(C)c4)cc3)C2)CC1 (mixture of isomers) [compound 372, rac-(1S,2R)-2-(cyano(1-((3-methyl-1-(4-((1-methyl-1H-pyrazol-4-yl)sulfonyl)phenyl)azetidin-3-yl)methyl)piperidin-4-yl)(phenyl)methyl)cyclopentyl methylcarbamate]
IC50 [2, 6]: 0.048 µM
IC50 [3, 10]: 5.01 µM
IC50 [3, 11]: 2.03 µM

Structure (SMILES): CCN1Cc2ccccc2C(C2CCCC2)(C2CCN(CC3CN(c4ccc(S(=O)(=O)C5CCCC5)cc4)C3)CC2)C1 (stereo not drawn) [compound 142, 4-cyclopentyl-4-(1-((1-(4-(cyclopentylsulfonyl)phenyl)azetidin-3-yl)methyl)piperidin-4-yl)-2-ethyl-1,2,3,4-tetrahydroisoquinoline]
IC50 [2, 6]: 0.008 µM
IC50 [3, 12]: 3.2 ± 0.3 µM
IC50 [3, 13]: 0.979 ± 0.335 µM

Structure (SMILES): CNC(=O)N[C@H]1CCC[C@@H]1C(CN)(c1ccccc1)C1CCN(CC2CN(c3ccc(S(=O)(=O)c4ccccc4)cc3)C2)CC1 (mixture of isomers) [compound 321, rac-1-((1S,2R)-2-(2-amino-1-phenyl-1-(1-((1-(4-(phenylsulfonyl)phenyl)azetidin-3-yl)methyl)piperidin-4-yl)ethyl)cyclopentyl)-3-methylurea]
IC50 [2, 6]: 0.004 µM
IC50 [3, 10]: 1.25 µM
IC50 [3, 11]: 0.73 µM

Structure (SMILES): CCN1Cc2ccccc2C(C2CCCC2)(C2CCN(CC3CN(c4ccc(S(=O)(=O)C5CC5)cc4Cl)C3)CC2)C1 (stereo not drawn) [compound 144, 4-(1-((1-(2-chloro-4-(cyclopropylsulfonyl)phenyl)azetidin-3-yl)methyl)piperidin-4-yl)-4-cyclopentyl-2-ethyl-1,2,3,4-tetrahydroisoquinoline]
IC50 [2, 6]: 0.023 µM
IC50 [3, 12]: 4 ± 0.7 µM
IC50 [3, 13]: 1.6 ± 1.1 µM

Structure (SMILES): CCN1Cc2ccccc2C(C2CCCC2)(C2CCN(CC3CN(c4ccc(S(=O)(=O)c5ccc(C(=O)O)cc5)cc4)C3)CC2)C1 (stereo not drawn) [compound 164, 4-((4-(3-((4-(4-cyclopentyl-2-ethyl-1,2,3,4-tetrahydroisoquinolin-4-yl)piperidin-1-yl)methyl)azetidin-1-yl)phenyl)sulfonyl)benzoic acid]
IC50 [2, 6]: 0.008 µM
IC50 [3, 12]: 0.72 µM
IC50 [3, 13]: 0.27 µM

Structure (SMILES): CNC(=O)N[C@H]1CCC[C@@H]1C1(C2CCN(CC3CN(c4ccc(S(=O)(=O)C5CC5)cc4)C3)CC2)CN(C(C)C)Cc2ccccc21 (mixture of isomers) [compound 288, rac-1-((1S,2R)-2-(4-(1-((1-(4-(cyclopropylsulfonyl)phenyl)azetidin-3-yl)methyl)piperidin-4-yl)-2-isopropyl-1,2,3,4-tetrahydroisoquinolin-4-yl)cyclopentyl)-3-methylurea]
IC50 [2, 6]: 0.012 µM
IC50 [3, 10]: 48.8 µM
IC50 [3, 11]: 0.35 µM

Structure (SMILES): O=S(=O)(c1ccncc1)c1ccc(N2CC(CN3CCC(C4(C5CCCC5)CNCc5ccccc54)CC3)C2)cc1 (stereo not drawn) [compound 51, 4-cyclopentyl-4-(1-((1-(4-(pyridin-4-ylsulfonyl)phenyl)azetidin-3-yl)methyl)piperidin-4-yl)-1,2,3,4-tetrahydroisoquinoline]
IC50 [2, 6]: 0.008 µM
IC50 [3, 12]: 1.46 µM
IC50 [3, 13]: 0.67 µM

Structure (SMILES): N#CC(c1ccccc1)(C1CCN(CC2CN(c3ccc(S(=O)(=O)c4ccncc4)cc3)C2)CC1)[C@H]1CCC[C@@H]1OC(N)=O (mixture of isomers) [compound 211, rac-(1S,2R)-2-(cyano(phenyl)(1-((1-(4-(pyridin-4-ylsulfonyl)phenyl)azetidin-3-yl)methyl)piperidin-4-yl)methyl)cyclopentyl carbamate]
IC50 [2, 6]: 0.009 µM
IC50 [3, 10]: 0.546 µM
IC50 [3, 11]: 0.302 µM

Structure (SMILES): COC(=O)N[C@H]1CCC[C@@H]1C(C#N)(c1ccccc1)C1CCN(CC2CN(c3ccc(S(=O)(=O)c4cnn(C)c4)cc3)C2)CC1 (mixture of isomers) [Cpd. No. 349, methyl (rac-(1S,2R)-2-(cyano(1-((1-(4-((1-methyl-1H-pyrazol-4-yl)sulfonyl)phenyl)azetidin-3-yl)methyl)piperidin-4-yl)(phenyl)methyl)cyclopentyl)carbamate]
IC50 [2, 6]: 0.015 µM
IC50 [3, 10]: 0.87 µM
IC50 [3, 11]: 0.44 µM
